From patent US6338963B1, “Use of carbon monoxide dependent guanylyl cyclase modifiers to stimulate neuritogenesis” (NeoTherapeutics, Inc., priority 1994, dated 2002) come the findings set out here.

The test system of assay [1] is Swiss Webster mice. The experiment in a line: Locomotor activity (spontaneous movements), Swiss Webster mice. Type of assay: in vivo. Here is the method:
The activity of AIT-082 was compared with tacrine (THA) and physostigmine (PHY), experimental anticholinesterase agents which enhance memory in animals. The drugs were also evaluated for their effects on locomotor activity. In the win-shift memory paradigm, AIT-082 was evaluated for its ability to induce tolerance after 18 days of drug administration. In addition AIT-082 was tested for its activity to modify learning in a modified T-maze discrimination task.
The drugs used in this example are 4-((3-(1,6-dihydro-6-oxo-9-purin-9-yl)-1-oxopropyl)amino) benzoic acid (AIT-082), as an exemplary potassium salt, tacrine hydrochloride (tetrahydroaminoacridine, THA, Sigma Chemical Co., St. Louis, Mo.), and physostigmine, hemisulfate salt (PHY, Sigma Chemical Co., St. Louis, Mo.). The drugs were dissolved in saline and prepared fresh daily. All injections were made at a volume of 0.1 ml/10 grams body weight. When testing drug effects, intraperitoneal (i.p.) injections of AIT-082 or THA were made one hour prior to the start of testing. Due to its shorter duration of action, PHY was injected 30 minutes prior to testing. Control subjects receive a similar injection of saline (vehicle).

Assay [2] has as its system mice. The experiment in a line: Prophylaxis of age-induced memory deficit (win-shift, monthly). In kind it is in vivo. The conditions noted are these: 30 mg/kg/day in drinking water from 14 months of age. How it is done: It has been observed that age-induced memory deficits typically begin to manifest themselves in mice between 14 and 16 months of age. Therefore, the treatment of mice was begun at 14 months of age with AIT-082 (30 mg/kg/day) in their drinking water. The animals were measured monthly for their memory using the win-shift foraging tests previously described.

In assay [3] the test system is NT-3 mRNA. The experiment in a line: RT-PCR of growth factor mRNA after T8 spinal cord hemisection: NT-3. In kind it is in vivo, Wistar rats.
Assay [4] concerns BDNF. The experiment in a line: Two-site ELISA of growth factor protein in rat brain and spinal cord: BDNF. In kind it is in vivo, F344 rats. Here is the method: Adult female F344 rats were given either AIT-082 (doses: 30 mg/kg/day or a higher dose of 30 mg/ml (˜3,000 mg/kg/day); n=6 rats per group) in their drinking water, or water alone, as a vehicle for control. The duration of the study was seven days, at which time the rats were anesthesized and perfused with ice-cold saline. The brains of the rats were rapidly removed. The brains were placed on a chilled glass plate and dissected into the following regions: basal forebrain, frontal cortex, parietal cortex, cerebellum, spinal cord, and hippocampal formation. Tissues were stored at −70° C. until assayed in a specific two-site ELISA for either NGF, BDNF, NT-3, or GNDF.
The results are shown in FIGS. 45 (BDNF), 46 (NT-3), 47 (GDNF) and 48 (NGF). For the results shown in FIGS. 45-48, animals were given only water (VEH, n=6) or water with AIT-082 at either 30 mg/kg/day (n=6) or 30 mg/ml (n=6) for seven days. The levels of each growth factor were determined in the frontal cortex (F. Cor.), parietal cortex (P.Cor.), hippocampal formation (Hipp.), basal forebrain (B.F.), cerebellum (Cer.), or spinal cord (Cord) using a specific two-site ELISA for each growth factor.
Adult female rats were given AIT-082 (30 mg/kg/day) in their drinking water or drinking water alone (n=6 for each group) for seven days prior to receiving a bilateral fimbria fornix transection (FFT).
The results are shown in FIGS. 49 (BDNF), 50 (NT-3), 51 (GDNF) and 52 (NGF). For the results shown in the Figures, animals were given only water (VEH, n=3) or water with AIT-082 at 30 mg/kg/day (n=3). Levels of the growth factor were determined in frontal cortex (F.Cor.), parietal cortex (P.Cor.), hippocampal formation (Hipp.), basal forebrain (B.F.), cerebellum (Cer.), or spinal cord (Cord) using a specific two-site ELISA for each growth factor.
Aged female Fischer 344 rats (obtained from National Institute on Aging; 24 months on arrival) were given AIT-082 (30 mg/kg/day) in their drinking water or drinking water alone, for a period of 30 days (n=5 rats per group). After 30 days, animals were sacrificed and fresh tissues were dissected as described above. An additional set of young animals (n=5) was processed along with the aged rats for comparison.
Results are shown in FIGS. 53 (BDNF), 54 (NT3), 55 (GDNF), and 56 (NGF). As described above, for the results shown in these figures, aged rats (24 months of age) were given water (vehicle control; n=5) or water with AIT-082 (at 30 mg/kg/day; n=5 for 30 days). A separate group of young untreated animals was also included (n=5). Levels of each growth factor were determined in frontal cortex (F.Cor.), parietal cortex (P. Cor.), hippocampal formation (Hipp.), basal forebrain (B.F.), cerebellum (Cer.) or spinal cord (Cord) using a specific two-site ELISA.

`O=C(CCn1cnc2c(=O)[nH]cnc21)Nc1ccc(C(=O)O)cc1` [AIT-082, N-4-carboxyphenyl-3-(6-oxohydropurin-9-yl)propanamide]: the “Locomotor Activity” value in assay [1] (AIT-082 0.5 mg/kg) is 323 Spontaneous movements per hour; in assay [1] (AIT-082 30.0 mg/kg), 378 Spontaneous movements per hour. In assay [2], the “onset and severity of age-induced memory deficits” value is “delayed the onset and severity of memory deficits”. The “NT-3 mRNA level” value in assay [3] (at the level of the lesion) is reported as “no significant differences”; in assay [3] (caudal to lesion, 7 days) it was “no significant effects”; in assay [3] (caudal to lesion, control animals, 3 days) it was “decreased”. For the same molecule, the “BDNF protein levels over vehicle controls” value in assay [4] (FFT-lesioned rats, 30 mg/kg/day, frontal cortex, significance not achieved) is “almost threefold”; in assay [4] (intact adult rats, 30 mg/kg/day in drinking water 7 days, frontal cortex) it was “more than twofold”; in assay [4] (intact adult rats, 3000 mg/kg/day, frontal cortex), “not seen”; in assay [4] (intact adult rats, spinal cord, not significant (p>0.05)) it was “twofold”. For the same molecule, the BDNF protein levels result in assay [4] (aged rats, 30 mg/kg/day 30 days, any brain region) is reported as “no effect”.
